Experimental data taken from patent US7534871B2, “Preparation and use of carbohydrate-based bicyclic ring structures with antimicrobial and cytostatic activity” (Kemin Pharma B.V.B.A., priority 2004, dated 2009).
Values after ≈ are worked out from the molar mass of the structure shown. Like-named read-outs stand apart in the source and are kept apart here.

Experiments:
HSV-1 (KOS) = test: Anti-viral activity: HSV-1-induced cytopathicity in human embryo fibroblast E6SM cell cultures; format: cell-based, herpes simplex virus (HSV); settings: Human alphaherpesvirus 1, 50%
[1] = test system: P. aeruginosa ATCC27853 LMG16217; test: Anti-bacterial activity, Bioscreen C growth curve: P. aeruginosa; format: cell-based, Pseudomonas aeruginosa; settings: for activity at 25 ppm: Pseudomonas aeruginosa, 35° C., 16 hours, negative control = 100, read-out: % of growth at 25 PPM compared to the negative control, P. aeruginosa ATCC27853 LMG16217
Method: (§1) For the determination of the anti-bacterial and anti-fungal activity the Bioscreen C Analyser Labsystems, Finland, was used. This is an automated reader-incubator. It measures growth continuously by vertical photometry (optical density), processes the data and provides a print out of the results. The area under the growth curve is automatically determined via the Biolink software.
(§2) The inoculum size of the bacteria is standardized to approximately 5×10^5 CFU/ml.
(§3) For bacteria, the 100-honey-well plates containing test chemical, Mueller-Hinton broth and inoculum (=sample) are incubated at 35° C. for 16 hours. Also wells without inoculum are incubated (=blanco). Yeasts are incubated 35° C. for 24 hours in RPMI 1640+MOPS buffer at 165 mM. Moulds also in RPMI 1640+MOPS buffer at 165 mM are incubated 25° C. for 5 days. All micro-organisms are screened against a known concentration of the reference antibiotics or antimycotics such as vancomycin, penicillin G, gentamicin or amphotericin B. The growth curve and the area under the growth curve can be determined using the Biolink software; this is illustrated in FIG. 1.
(§4) The area of the blanco is subtracted from the area of the sample, this number (delta) gives us an indication of the biological activity of the molecules tested and can be expressed as a % of growth at a specific dose compared to a negative control that has a value of 100, illustrated in FIG. 2. Screening of each dose of a specific compound is repeated 5 times. The dose used for all new molecules in all tests is 25 PPM or 25 μg/ml.
(§5) In Table 4 the results of the anti-bacterial activity is given for the new molecules. The micro-organisms used are Staphylococcus aureus, MRSA, VRE, Enterococcus faecalis, Salmonella typhimurium and Pseudomonas aeruginosa.

CMV AD-169 strain = test: Anti-CMV activity: plaque reduction in HEL cells, AD-169 strain; format: cell-based, human cytomegalovirus (CMV); settings: for IC50: Human betaherpesvirus 5, AD169, HEL, Table 2, reduce virus plaque formation by 50%, virus input 100 PFU, read-out: IC50 CMV AD-169 Strain
VV = test: microbe, parasite or virus in culture; format: cell-based; settings: Orthopoxvirus vaccinia, E6SM, read-out: EC50 VV (E6SM)
[2] = test system: human T-lymphocyte cells (Molt4/C8); test: Cytostatic activity: inhibition of proliferation of Molt4/C8 cells; format: cell-based
Method: (§6) The compounds were tested for anti-tumor activity via the inhibitory effects on the proliferation of murine leukemia cells (L1210/0), murine mammary carcinoma cells (FM3A), human T-lymphocyte cells (Molt4/C8, CEM/0) and human cervix carcinoma cells (HeLa).

VRE ATCC700221 = test: Anti-bacterial activity, Bioscreen C growth curve: VRE; format: cell-based, vancomycin-resistant Enterococcus (VRE); settings: Enterococcus, 35° C., 16 hours, negative control = 100, read-out: % of growth at 25 PPM compared to the negative control, VRE ATCC700221
Method: as §1, §2, §3, §4, §5

[3] = test system: human cervix carcinoma cells (HeLa); test: Cytostatic activity: inhibition of proliferation of HeLa cells; format: cell-based; settings: 50% inhibitory concentration, cell proliferation
Method: as §6

HEL cells = test: Cytotoxicity: alteration of cell morphology (MCC); format: cell-based, human; settings: minimum cytotoxic concentration that causes a microscopically detectable alteration of cell morphology
[4] = Cytotoxicity: inhibition of HEL cell growth (CC50); format: cell-based; settings: human; concentration required to reduce cell growth by 50%; HEL cells, three days
Method: The medium was then replaced by MEM containing various concentrations of the test compound. After three days incubation at 37° C., when the cell monolayer was 70% confluent, the cell number was determined with the Coulter counter. The minimum cytotoxic concentration was defined as the concentration required to reduce cell growth by 50%.

CMV Davis strain = test: Anti-CMV activity: plaque reduction in HEL cells, Davis strain; format: cell-based, human cytomegalovirus (CMV); settings: Human betaherpesvirus 5, HEL; Table 2; reduce virus plaque formation by 50%; virus input 100 PFU; read-out: IC50 CMV David strain
[5] = test system: L1210/0, FM3A, Molt4/C8, CEM/0 and HeLa cells; test: Cytostatic studies, conclusion over the panel of cell lines; format: cell-based, murine and human; settings: conclusion in text on Table 3
Method: as §6

[6] = Molt4/C8, 50% inhibitory concentration, cell proliferation, read-out: IC50 Molt4/C8

SMILES | EC50 (HSV-1 (KOS)) [µg/mL] | activity at 25 ppm [1] [%] | IC50 (CMV AD-169 strain) [µg/mL] | EC50 (VV) [µg/mL] | IC50 [2, 6] [µg/mL] | activity at 25 ppm (VRE ATCC700221) [%] | IC50 [3] [µg/mL] | melting point [°C] | Cytotoxicity Cell morphology (MCC) (HEL cells) [μg/ml] | CC50 at 3 days [4] [µg/mL] | IC50 (CMV Davis strain) [µg/mL] | IC50 ([2]; Molt4/C8, read-out: IC50 Molt4/C8) [µg/mL] | cytostatic activity, in words [5] | anti-bacterial activity against P. aeruginosa, in words ([1]; conclusion on Table 4) | anti-viral activity against CMV, in words (CMV AD-169 strain; strain not named)
CO[C@@H]1[C@@H](OC)[C@H](Cc2ccccc2)O[C@@H]2COC(=O)CCCCCCCCC=CCCCCCCCCC(=O)O[C@@H]12 [KPE00001031E] | ≥ 400 | 89.6 | > 5 | > 400 | ≥ 200 | 85.4 | > 200 | 45 to 46 |  |  |  |  |  |  | 
CO[C@@H]1[C@@H](OC)[C@H](Cc2ccccc2)O[C@@H]2CO[C@@H](c3ccccc3)O[C@@H]12 [KPE00001019] | > 80 | 105 |  | > 80 | ≥ 200 | 97 | > 200 |  | 20 | > 50 |  |  |  |  | 
CO[C@@H]1[C@@H](OC)[C@H](Sc2ccccc2)O[C@@H]2COC(=O)CCCC/C=C\CCCCC(=O)O[C@@H]12 [KPE00001016.2] | > 3.2 | 79.8 | > 20 | > 3.2 | 78 ± 53 (≈ 158 µM) | 81 | 169 ± 44 (≈ 343 µM) | 87 to 88 |  |  | > 20 |  |  |  | 
CO[C@@H]1[C@@H](OC)[C@H](Cc2ccccc2)O[C@@H]2COC(=O)CC/C=C/CCC(=O)O[C@@H]12 [KPE00001022] | > 80 | 90.9 | > 5 | 80 (≈ 191 µM) |  | 87 | ~167 (≈ 399 µM) |  |  |  |  | 69 ± 6 (≈ 165 µM) | good cytostatic activity |  | 
CO[C@@H]1[C@@H](OC)[C@H](Sc2ccccc2)O[C@@H]2COC(=O)CCCC/C=C/CCCCC(=O)O[C@@H]12 [KPE00001016.1] | > 3.2 | 29 | 10 (≈ 20.3 µM) | > 3.2 | 39 ± 1 (≈ 79.2 µM) | 61.8 | 19 ± 5 (≈ 38.6 µM) | 60 to 61 |  |  | 10 (≈ 20.3 µM) |  | good cytostatic activity | good anti-bacterial activity | especially active
CO[C@@H]1[C@@H](OC)[C@H](c2ccccc2)O[C@@H]2CO[C@@H](c3ccccc3)O[C@@H]12 [KPE00001015] | > 80 | 90.4 |  | > 80 | 62 ± 3 (≈ 174 µM) | 67.8 | 104 ± 65 (≈ 292 µM) |  | 50 | > 50 |  |  |  |  | 
